Source: PubChem BioAssay (NCI)
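In this assay, cells in 96-well plates receive the compound at five concentrations for 48 hours. Endpoints are linearly interpolated between the surrounding concentrations. TGI: total growth inhibition.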

Legend:
Test in all cases: NCI-60 cell line screen, 48 h
[1] = tested on: ACHN renal
[2] = tested on: U251 CNS
[3] = tested on: IGROV1 ovarian
[4] = tested on: HT29 colon
[5] = tested on: NCI-H522 lung
[6] = tested on: HL-60(TB) leukemia
[7] = tested on: SW-620 colon
[8] = tested on: K-562 leukemia
[9] = tested on: NCI-H226 lung
[10] = tested on: XF 498 CNS
[11] = tested on: SK-OV-3 ovarian
[12] = tested on: UO-31 renal
[13] = tested on: COLO 205 colon
[14] = tested on: SNB-75 CNS
[15] = tested on: A549 NSCLC
[16] = tested on: HOP-18 NSCLC
[17] = tested on: DLD-1 colon
[18] = tested on: MOLT-4 leukemia
[19] = tested on: HCT-116 colon
[20] = tested on: RPMI-8226 leukemia
[21] = tested on: SF-268 CNS
[22] = tested on: HOP-62 NSCLC
[23] = tested on: TK-10 renal
[24] = tested on: OVCAR-8 ovarian
[25] = tested on: KM20L2 colon
[26] = tested on: A498 renal
[27] = tested on: SNB-19 CNS
[28] = tested on: SF-539 CNS
[29] = tested on: UACC-62 melanoma
[30] = tested on: SK-MEL-28 melanoma
[31] = tested on: OVCAR-3 ovarian
[32] = tested on: RXF 393 renal
[33] = tested on: HCC-2998 colon
[34] = tested on: KM12 colon
[35] = tested on: DMS 114 small cell lung
[36] = tested on: HOP-92 NSCLC
[37] = tested on: 786-0 renal
[38] = tested on: SNB-78 CNS
[39] = tested on: UACC-257 melanoma
[40] = tested on: MALME-3M melanoma
[41] = tested on: EKVX NSCLC
[42] = tested on: LOX IMVI melanoma
[43] = tested on: SN12C renal
[44] = tested on: SK-MEL-5 melanoma
[45] = tested on: SF-295 CNS
[46] = tested on: M19-MEL melanoma
[47] = tested on: OVCAR-5 ovarian
[48] = tested on: SK-MEL-2 melanoma
[49] = tested on: CCRF-CEM leukemia
[50] = tested on: LXFL 529 NSCLC
[51] = tested on: NCI-H23 lung
[52] = tested on: M14 melanoma
[53] = tested on: SR leukemia
[54] = tested on: DMS 273 small cell lung
[55] = tested on: HCT-15 colon
[56] = tested on: OVCAR-4 ovarian
[57] = tested on: NCI-H460 lung
[58] = tested on: CAKI-1 renal

Measured: TGI

COc1cc(C(=C2SCCS2)c2nccc3cc(OC)c(OC)cc23)c([N+](=O)[O-])cc1OC
94.6 µM: [6]
not listed: [55] | [56] | [57] | [58]
> 100 µM: all other assays above

O=C(Cc1ccccc1)NN1C(=O)C(Cl)C1c1ccccc1 (configuration not stated)
71.4 µM: [49]
81.8 µM: [18]
55.3 µM: [53]
52.8 µM: [20]
50.5 µM: [50]
3.93 µM: [5]
45.2 µM: [10]
not listed: [26] | [28] | [36] | [42] | [54]
> 100 µM: all other assays above
